According to PubChem BioAssay (NCI):
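Values below derive from 48-hour exposures of cells grown in 96-well plates, with endpoints linearly interpolated between the two concentrations bracketing the appropriate inhibition level. The concentration for full growth arrest is given as TGI.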

Legend:
Experiment in all cases: NCI anticancer screen, dose series, 48 h
T-47D breast = system: T-47D breast
OVCAR-5 ovarian = system: OVCAR-5 ovarian
EKVX NSCLC = system: EKVX NSCLC
UACC-257 melanoma = system: UACC-257 melanoma
COLO 205 colon = system: COLO 205 colon
SF-295 CNS = system: SF-295 CNS
SN12C renal = system: SN12C renal
OVCAR-3 ovarian = system: OVCAR-3 ovarian
DU-145 prostate = system: DU-145 prostate
UO-31 renal = system: UO-31 renal
HL-60(TB) leukemia = system: HL-60(TB) leukemia
RPMI-8226 leukemia = system: RPMI-8226 leukemia
UACC-62 melanoma = system: UACC-62 melanoma
SW-620 colon = system: SW-620 colon
LOX IMVI melanoma = system: LOX IMVI melanoma
MOLT-4 leukemia = system: MOLT-4 leukemia
SF-268 CNS = system: SF-268 CNS
HOP-92 NSCLC = system: HOP-92 NSCLC
SK-OV-3 ovarian = system: SK-OV-3 ovarian
SR leukemia = system: SR leukemia
MDA-MB-231 breast = system: MDA-MB-231 breast
A498 renal = system: A498 renal
A549 NSCLC = system: A549 NSCLC
M14 melanoma = system: M14 melanoma
SNB-19 CNS = system: SNB-19 CNS
SK-MEL-5 melanoma = system: SK-MEL-5 melanoma
MALME-3M melanoma = system: MALME-3M melanoma
MCF7 breast = system: MCF7 breast
OVCAR-8 ovarian = system: OVCAR-8 ovarian
HS 578T breast = system: HS 578T breast
BT-549 breast = system: BT-549 breast
SK-MEL-28 melanoma = system: SK-MEL-28 melanoma
CCRF-CEM leukemia = system: CCRF-CEM leukemia
HCT-116 colon = system: HCT-116 colon
NCI-H23 lung = system: NCI-H23 lung
HCC-2998 colon = system: HCC-2998 colon
TK-10 renal = system: TK-10 renal
K-562 leukemia = system: K-562 leukemia
MDA-N = system: MDA-N
CAKI-1 renal = system: CAKI-1 renal
KM12 colon = system: KM12 colon
SK-MEL-2 melanoma = system: SK-MEL-2 melanoma
HOP-62 NSCLC = system: HOP-62 NSCLC
SNB-75 CNS = system: SNB-75 CNS
MDA-MB-435 = system: MDA-MB-435
NCI-H226 lung = system: NCI-H226 lung
ACHN renal = system: ACHN renal
HCT-15 colon = system: HCT-15 colon
RXF 393 renal = system: RXF 393 renal
NCI-H460 lung = system: NCI-H460 lung
HT29 colon = system: HT29 colon
786-0 renal = system: 786-0 renal
NCI-H522 lung = system: NCI-H522 lung
OVCAR-4 ovarian = system: OVCAR-4 ovarian
SF-539 CNS = system: SF-539 CNS
IGROV1 ovarian = system: IGROV1 ovarian
NCI/ADR-RES ovarian = system: NCI/ADR-RES ovarian
PC-3 prostate = system: PC-3 prostate
U251 CNS = system: U251 CNS

**Q.** What does the source list for `c1ccc2c(c1)CCN1CCc3c([nH]c4ccccc34)C21` (stereo not drawn)?
**A.** TGI (T-47D breast): > 100 µM; TGI (OVCAR-5 ovarian): > 100 µM; TGI (EKVX NSCLC): 82.1 µM; TGI (UACC-257 melanoma): 91.6 µM; TGI (COLO 205 colon): 37.8 µM; TGI (SF-295 CNS): 57.4 µM; TGI (SN12C renal): > 100 µM; TGI (OVCAR-3 ovarian): 66.7 µM; TGI (DU-145 prostate): > 100 µM; TGI (UO-31 renal): > 100 µM; TGI (HL-60(TB) leukemia): 34.3 µM; TGI (RPMI-8226 leukemia): 55.1 µM; TGI (UACC-62 melanoma): > 100 µM; TGI (SW-620 colon): > 100 µM; TGI (LOX IMVI melanoma): 53.1 µM; TGI (MOLT-4 leukemia): 70.6 µM; TGI (SF-268 CNS): > 100 µM; TGI (HOP-92 NSCLC): 72.2 µM; TGI (SK-OV-3 ovarian): > 100 µM; TGI (SR leukemia): 56.3 µM; TGI (MDA-MB-231 breast): > 100 µM; TGI (A498 renal): 54.5 µM; TGI (A549 NSCLC): > 100 µM; TGI (M14 melanoma): 34 µM; TGI (SNB-19 CNS): > 100 µM; TGI (SK-MEL-5 melanoma): 29.7 µM; TGI (MALME-3M melanoma): 38.3 µM; TGI (MCF7 breast): > 100 µM; TGI (OVCAR-8 ovarian): > 100 µM; TGI (HS 578T breast): > 100 µM; TGI (BT-549 breast): > 100 µM; TGI (SK-MEL-28 melanoma): 48.8 µM; TGI (CCRF-CEM leukemia): 95.5 µM; TGI (HCT-116 colon): 76.5 µM; TGI (NCI-H23 lung): > 100 µM; TGI (HCC-2998 colon): 34 µM; TGI (TK-10 renal): > 100 µM; TGI (K-562 leukemia): 43.3 µM; TGI (MDA-N): 73.8 µM; TGI (CAKI-1 renal): > 100 µM; TGI (KM12 colon): > 100 µM; TGI (SK-MEL-2 melanoma): 57.1 µM; TGI (HOP-62 NSCLC): > 100 µM; TGI (SNB-75 CNS): 79 µM; TGI (MDA-MB-435): 75.5 µM; TGI (NCI-H226 lung): 97.5 µM; TGI (ACHN renal): > 100 µM; TGI (HCT-15 colon): > 100 µM; TGI (RXF 393 renal): 72.3 µM; TGI (NCI-H460 lung): > 100 µM; TGI (HT29 colon): 99.3 µM; TGI (786-0 renal): > 100 µM; TGI (NCI-H522 lung): 66 µM; TGI (OVCAR-4 ovarian): > 100 µM; TGI (SF-539 CNS): > 100 µM; TGI (IGROV1 ovarian): > 100 µM; TGI (NCI/ADR-RES ovarian): 56.9 µM; TGI (PC-3 prostate): 98.5 µM; TGI (U251 CNS): > 100 µM

**Q.** Which results are given for `COc1ccc(C(=O)/C=C/c2ccc(OCC(=O)O)cc2)cc1`?
**A.** TGI (T-47D breast): > 100 µM; TGI (OVCAR-5 ovarian): > 100 µM; TGI (EKVX NSCLC): > 100 µM; TGI (COLO 205 colon): > 100 µM; TGI (SF-295 CNS): > 100 µM; TGI (SN12C renal): > 100 µM; TGI (OVCAR-3 ovarian): > 100 µM; TGI (DU-145 prostate): > 100 µM; TGI (UO-31 renal): > 100 µM; TGI (HL-60(TB) leukemia): > 100 µM; TGI (RPMI-8226 leukemia): > 100 µM; TGI (UACC-62 melanoma): > 100 µM; TGI (SW-620 colon): > 100 µM; TGI (LOX IMVI melanoma): > 100 µM; TGI (MOLT-4 leukemia): > 100 µM; TGI (SF-268 CNS): > 100 µM; TGI (HOP-92 NSCLC): > 100 µM; TGI (SR leukemia): > 100 µM; TGI (MDA-MB-231 breast): > 100 µM; TGI (A498 renal): > 100 µM; TGI (A549 NSCLC): > 100 µM; TGI (M14 melanoma): > 100 µM; TGI (SNB-19 CNS): > 100 µM; TGI (SK-MEL-5 melanoma): > 100 µM; TGI (MALME-3M melanoma): > 100 µM; TGI (MCF7 breast): > 100 µM; TGI (OVCAR-8 ovarian): > 100 µM; TGI (HS 578T breast): > 100 µM; TGI (BT-549 breast): > 100 µM; TGI (SK-MEL-28 melanoma): > 100 µM; TGI (CCRF-CEM leukemia): > 100 µM; TGI (HCT-116 colon): > 100 µM; TGI (NCI-H23 lung): > 100 µM; TGI (HCC-2998 colon): > 100 µM; TGI (TK-10 renal): > 100 µM; TGI (K-562 leukemia): > 100 µM; TGI (MDA-N): > 100 µM; TGI (CAKI-1 renal): > 100 µM; TGI (KM12 colon): > 100 µM; TGI (SK-MEL-2 melanoma): > 100 µM; TGI (HOP-62 NSCLC): > 100 µM; TGI (SNB-75 CNS): > 100 µM; TGI (MDA-MB-435): > 100 µM; TGI (ACHN renal): > 100 µM; TGI (HCT-15 colon): > 100 µM; TGI (RXF 393 renal): > 100 µM; TGI (HT29 colon): > 100 µM; TGI (786-0 renal): > 100 µM; TGI (NCI-H522 lung): > 100 µM; TGI (SF-539 CNS): > 100 µM; TGI (IGROV1 ovarian): > 100 µM; TGI (NCI/ADR-RES ovarian): > 100 µM; TGI (PC-3 prostate): > 100 µM; TGI (U251 CNS): 79.9 µM
